# Experimental data taken from EP0932388B1, “DOSAGE FORM AND METHOD FOR ADM[…]” (ALZA CORPORATION, priority 1996, dated 1998).
# Test system: school children
# Experiment: clinical study of methylphenidate release profiles (SKAMP and CLAM ratings, mathematics test, activity monitor)
# Format: in vivo
# Conditions: oral
# Experimental: The CLAM Test is a behavior rating that indicates social conformity or rebellion as developed by Conners, Lonez, and Milch and SKAMP is a rating that also measures behavior as developed by Swanson and reported in Psychopharmacological Bulletin, Vol. 21, pp. 887-890 (1985).
# The effect measurements in this study were: (1) observer ratings on SKAMP scale (during classroom time) and (2) performance on the computerized mathematics test. Each child was tested on the mathematics test before the study began, and based on this pre-test during the study, a mathematics test appropriate for each child's ability was given. The morning and evening parent CLAM assessments were used to identify unusual behaviors. The evening parent CLAM was used to determine the presence of treatment effects in the evening hours, particularly treatment effects on the time the child fell asleep, and whether the child's sleep was interrupted. All of the children also wore an activity monitor (Actigraph) which records the movements of the child throughout the day. The activity (number of movements per minute) is recorded electronically and modeled as a function of the drug effect.
# The immediate release tablet and the sustained-release dosage form were compared to a sustained-release dosage form that administered methylphenidate in an ascending profile. The sustained-release ascending profile corresponds to administering 4.2 mg at zero hour, 1.1 mg at 1.5 hours, 1.1 mg at 2 hours, 1.2 mg at 2.5 hours, 1.2 mg at 3.0 hours, 1.3 mg at 3.5 hours, 1.3 mg at 4 hours, 1.5 mg at 4.5 hours, 1.5 mg at 5 hours, 1.8 mg at 5.5 hours, 1.8 mg at 6 hours, and 2.0 mg at 6.5 hours, to produce the sustained-ascending release dotted line profile seen in Figure 2.
# The accompanying figures present the results of the above-described study. […]
structure (smiles),measurement,setting,value
COC(=O)C(c1ccccc1)C1CCCCN1 (stereo not drawn) [methylphenidate],therapeutic effect and tolerance,controlled-sustained ascending profile of methylphenidate,desired therapeutic effect without tolerance
same,acute tolerance,sustained-nonascending dose of methylphenidate (20 mg program),development of acute tolerance
same,"behavior, activity and mathematical scores","sustained-nonascending dose of methylphenidate (20 mg program), versus placebo","a decrease in activity, higher mathematical scores and a lessening of inappropriate behavior"
